Source: ChEMBL document CHEMBL1143486, “The synthesis and 16S A-site rRNA recognition of carbohydrate-free aminoglycosides” (Bioorg Med Chem Lett, 2005)

Key:
Ribosomal RNA A-site = experiment: Dissociation constant against 16S rRNA A-site; assay type: nucleic-acid assay
Nucleic Acid = experiment: Inhibitory concentration against cell-free bacterial transcription / translation (T/T) assay; assay type: functional

Structure (SMILES): NC1C[C@@H](N)[C@@H](O)C(O)[C@H]1OCSc1ccnc2cc(C(F)(F)F)ccc12 (stereo not given in full)
- Kd (Ribosomal RNA A-site): 35 µM
- IC50 (Nucleic Acid): > 50 µM

Structure (SMILES): COc1ccc(CO[C@H]2C(N)C[C@@H](N)[C@@H](O)C2O)cc1 (stereo not given in full)
- Kd (Ribosomal RNA A-site): 315 µM
- IC50 (Nucleic Acid): > 50 µM

Structure (SMILES): COc1ccc(CO[C@H]2C(N)C[C@@H](N)[C@@H](O)C2OCCNCCCN)cc1 (stereo not given in full)
- Kd (Ribosomal RNA A-site): 10 µM
- IC50 (Nucleic Acid): > 50 µM

Structure (SMILES): CN(C)CCCNC(=O)COC1[C@@H](OCSc2ccnc3cc(C(F)(F)F)ccc23)C(N)C[C@@H](N)[C@H]1O (stereo not given in full)
- Kd (Ribosomal RNA A-site): 88 µM
- IC50 (Nucleic Acid): > 50 µM

Structure (SMILES): NCCCNCCOC1[C@@H](OCSc2ccnc3cc(C(F)(F)F)ccc23)C(N)C[C@@H](N)[C@H]1O (stereo not given in full)
- Kd (Ribosomal RNA A-site): 2 µM
- IC50 (Nucleic Acid): 2.1 µM

Structure (SMILES): NCCCNCCO[C@H]1C(O)[C@@H](OCSc2ccnc3cc(C(F)(F)F)ccc23)C(N)C[C@H]1N (stereo not given in full)
- Kd (Ribosomal RNA A-site): 1.5 µM
- IC50 (Nucleic Acid): 15 µM

Structure (SMILES): CN(C)CCCNC(=O)CO[C@H]1C(O)[C@@H](OCSc2ccnc3cc(C(F)(F)F)ccc23)C(N)C[C@H]1N (stereo not given in full)
- Kd (Ribosomal RNA A-site): 241 µM
- IC50 (Nucleic Acid): > 50 µM

Structure (SMILES): COc1ccc(CO[C@H]2C(N)C[C@@H](N)[C@@H](OCCNCCCN)C2O)cc1 (stereo not given in full)
- Kd (Ribosomal RNA A-site): 27 µM
- IC50 (Nucleic Acid): > 50 µM

Structure (SMILES): NC[C@H]1O[C@H](O[C@H]2[C@H](O)[C@@H](O)[C@H](N)C[C@@H]2N)[C@H](N)[C@@H](O)[C@@H]1O [NEAMINE]
- Kd (Ribosomal RNA A-site): 5 µM
- IC50 (Nucleic Acid): > 50 µM

Structure (SMILES): NC[C@@H]1O[C@H](O[C@H]2[C@@H](O)[C@H](O[C@@H]3[C@@H](O)[C@H](N)C[C@H](N)[C@H]3O[C@H]3O[C@H](CO)[C@@H](O)[C@H](O)[C@H]3N)O[C@@H]2CO)[C@H](N)[C@@H](O)[C@@H]1O [PAROMOMYCIN]
- Kd (Ribosomal RNA A-site): 0.1 µM
- IC50 (Nucleic Acid): 0.6 µM
